Series [1] has as its target T1, isolated trachea of a guinea pig (Cavia porcellus, UniProt Q8K4Z4).
T1 construct: isolated trachea of a guinea pig; from tissue; host or cells: guinea pig isolated trachea
The experiment in a line: pA2 measurement of beta-blocking activity on the isolated trachea of a guinea pig. Format: cell-based. How it is done:
(§1) The PA2 is the co-logarithm of the concentration of antagonist in the presence of which it requires twice as much agonist as in its absence in order to achieve the same effect; see, on this subject: Calculation of the PAx, Technical Leaflet No. 16, J. Pharmacol. Paris 1971, 2, 3, 373-380. The PA2 was measured on the isolated auricle of a guinea pig and on the isolated trachea of a guinea pig. The product used by way of comparison is the following compound: [drawing 23]

In series [2] the target is T2, isolated auricle of a guinea pig (Cavia porcellus).
T2 construct: isolated auricle of a guinea pig; from tissue; host or cells: guinea pig isolated auricle (atrium)
The experiment in a line: pA2 measurement of beta-blocking activity on the isolated auricle of a guinea pig. Format: cell-based. The following applies: chronotropic. On the procedure: as §1

Series [3] deals with T3, isolated auricle of a guinea pig (Cavia porcellus, UniProt H0W3H1).
T3 construct: isolated auricle of a guinea pig; from tissue; host or cells: guinea pig isolated auricle (atrium)
The series is described as above. Type of series: cell-based. The following applies: inotropic. How it is done: as §1

The target in series [4] is T4, isolated trachea of a guinea pig (Cavia porcellus).
T4 construct: isolated trachea of a guinea pig; from tissue; host or cells: guinea pig isolated trachea
Kind of series: pA2 measurement of beta-blocking activity on the isolated trachea of a guinea pig. Type of series: cell-based. On the procedure: as §1

For series [5] the following is noted: prior art; cited from earlier work.

Each structure is given as a SMILES string. Structures can show the parent of a compound that is named as a salt.

T2 sequence (H0W3H1 1-470): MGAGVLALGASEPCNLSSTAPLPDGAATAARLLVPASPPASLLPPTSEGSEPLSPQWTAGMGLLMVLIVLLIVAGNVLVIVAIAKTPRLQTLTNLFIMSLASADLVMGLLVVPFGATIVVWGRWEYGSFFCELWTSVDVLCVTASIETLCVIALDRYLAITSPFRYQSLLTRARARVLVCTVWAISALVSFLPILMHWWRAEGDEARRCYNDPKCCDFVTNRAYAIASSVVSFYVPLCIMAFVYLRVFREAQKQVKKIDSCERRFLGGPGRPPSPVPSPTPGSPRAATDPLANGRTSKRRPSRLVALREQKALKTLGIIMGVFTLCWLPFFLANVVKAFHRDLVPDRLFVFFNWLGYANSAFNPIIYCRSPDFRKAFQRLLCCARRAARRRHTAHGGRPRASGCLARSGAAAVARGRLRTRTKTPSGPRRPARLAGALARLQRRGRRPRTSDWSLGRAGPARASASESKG
T1 sequence (Q8K4Z4 whole entry): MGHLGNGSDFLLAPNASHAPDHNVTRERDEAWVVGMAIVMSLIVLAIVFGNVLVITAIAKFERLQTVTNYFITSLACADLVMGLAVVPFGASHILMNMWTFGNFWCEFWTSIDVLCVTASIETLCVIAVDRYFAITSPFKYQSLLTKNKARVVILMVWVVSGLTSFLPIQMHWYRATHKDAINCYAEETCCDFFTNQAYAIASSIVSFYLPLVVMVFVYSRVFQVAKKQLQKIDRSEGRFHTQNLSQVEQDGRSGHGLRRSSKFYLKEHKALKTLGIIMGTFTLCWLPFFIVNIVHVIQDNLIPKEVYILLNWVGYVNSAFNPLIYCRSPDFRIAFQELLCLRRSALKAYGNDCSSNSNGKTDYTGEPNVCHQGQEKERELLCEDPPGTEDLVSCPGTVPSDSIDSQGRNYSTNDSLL
T3 sequence (H0W3H1 1-470): as the sequence (H0W3H1 1-470) above
T4 sequence (Q8K4Z4 whole entry): as the sequence (Q8K4Z4 whole entry) above

`C=CC(C)(C)OCC(O)CNC(C)(C)C` (stereo not drawn) [Comparison, reference compound]: the “Trachea pA2” value in series [1] came out at 4.96.

Take `CC(=NOCC(O)CNC(C)(C)C)C1CC1` (stereo not drawn) [Compound No. 1, 1-N-tert.-Butylamino-3-(cyclopropyl-methylketoneoximino)-propan-2-ol]: the results for the Kb in series [2], in series [3] and in series [4] were 2 nM, 1 nM and 0.912 nM, respectively.

Turning to `CC(C)(C)NCC(O)CON=C(C1CC1)C1CC1` (stereo not drawn) [Compound No. 2, 1-N-tert.-Butylamino-3-(dicyclopropyl-ketoneoximino)-propan-2-ol], the Kb in series [2] is 5.01 nM; in series [3], 7.24 nM.

On to `CC(C)(C)NCC(O)COCC1CC1` (stereo not drawn) [compound 3, 1-N-tert.-Butylamino-3-cyclopropylmethoxy-propan-2-ol], for which the Kb in series [2] was 79.4 nM. In series [1], the “Trachea pA2” value was 6.23.

As to `CC(C)(C)NC[C@H](O)COc1nsnc1N1CCOCC1` [timolol maleate], the “undesirable secondary effects in treatment of glaucomas” value in series [5] is “bronchial disorders (asthma) or cardiovascular disorders (orthostatic hypotension and slowing down of the pulse rate)”.

The values above are taken from US4766151A, “Ethers and oxime ethers of alkylamino alcohols as medicaments and novel products, and processes for their preparation” (Laboratoires, P.O.S., priority 1982, dated 1988).
